Like-named read-outs stand apart in the source and are kept apart here.
Legend:
E. coli MS 200-1 [1] = experiment: TMA inhibition in bacterial whole cells (LC–MS/MS of d9-TMA from d9-choline); type: cell-based, Escherichia coli MS 200-1; details: 1 mM d9-choline in PBS, 75 min, 37°C, anaerobic
Experimental: (§1) For TMA inhibition assays, E. coli and P. mirabilis were grown in NCE medium supplemented with 20 mM choline chloride, A. hydrogenalis was grown in MEGA medium supplemented with 3 mM choline chloride, and C. sporogenes was grown in BHI medium supplemented with 20 mM of choline chloride to induce expression of the cut gene cluster. For MIC assays, all bacteria strains were grown in MEGA medium.
(§2) Compounds were stored as 10 mM DMSO stocks at –20°C and diluted in DMSO to prepare varying concentrations of inhibitors for testing. Bacteria were grown anaerobically overnight in media supplemented with choline as described above. Cells were pelleted and resuspended in PBS, and d9-choline chloride was added to a final concentration of 1 mM. The final OD600 of the PBS cell resuspensions is as follows: 0.4 (E. coli), 0.15–0.2 (P. mirabilis), 0.2 (C. sporogenes), and 0.4 (A. hydrogenalis). The resuspended cells were added to 96-well plates containing inhibitors (final concentration of 1% DMSO, with final inhibitor concentrations ranging between 0 and 325 µM). The plates were sealed and incubated for 75 min (or 90 min for P. mirabilis) at 37°C. Following incubation, the plates were removed from the anaerobic chamber and analyzed immediately or kept at –20°C until LC–MS/MS analysis. Each inhibitor concentration was tested in triplicate. EC50 values were calculated with GraphPad Prism by fitting the log(inhibitor) vs response—Variable slope (four-parameter) model for non-linear regression.
(§3) Samples were kept frozen until analysis and kept cold on ice during handling due to the volatility of TMA. Bacterial cell resuspensions in PBS were diluted 100-fold in LCMS-grade acetonitrile with 0.1% formic acid to lyse cells, precipitate proteins, and extract metabolites. Samples were centrifuged at 4,000 rpm for 10 min at 4°C to pellet proteins. The supernatants were then further diluted 20-fold in LCMS-grade acetonitrile with 0.1% formic acid, and the resulting solution was analyzed by LC–MS/MS.
(§4) LC–MS/MS analysis was performed on an Agilent 1290/6470 Triple Quadrupole LC–MS instrument (Agilent Technologies) using electrospray ionization. The mass spectrometer was operated in multiple reaction monitoring (MRM) mode with positive ionization monitoring. The precursor–product ion pairs used in MRM mode were as follows: m/z 69.1m/z → 49.1 (d9-TMA) and m/z 113.2 m/z → 69.1 (d9-choline). The capillary voltage was set to 4.0 kV, and the fragmentor voltage was set to 30 V (d9-TMA) and 115 V (d9-choline). The collision energy for the precursor–product ion pairs was set to 29 V (d9-TMA) and 21 V (d9-choline). MS^1 resolution was set to wide and MS^2 resolution to unit. The drying gas temperature was maintained at 250°C, with a flow rate of 11 L/min and a nebulizer pressure of 45 psi. The time filter width used was 0.07 min. The injection volume of all samples was 1 μL. Samples were injected onto InfinityLab Poroshell 120 (Agilent) HILIC columns (2.7 μm, 100 mm × 2.1 mm, 100 Å) preceded by InfinityLab Poroshell 120 HILIC guard columns (2.1 mm, 1.9µm UHPLC guard). The LC conditions on the binary pump were as follows: a gradient of 5–35% A increasing over 1.95 min (1.2 mL/min), a gradient of 35–5% A decreasing over 0.05 min (1.6 mL/min), and held at 5% A for 0.5 min (2 mL/min). […] Solvent A was 10 mM ammonium formate with 0.1% formic acid, and solvent B was acetonitrile with 0.1% formic acid. Data analysis was performed with Mass Hunter Workstation Data Acquisition and Qualitative Analysis software (Agilent Technologies).

[2] = system: Anaerococcus hydrogenalis DSM 7454; experiment: as above; type: cell-based; details: 1 mM d9-choline in PBS, 75 min, 37°C, anaerobic
Experimental: as §1, §2, §3, §4

[3] = system: Clostridium sporogenes ATCC 15579; experiment: as above; type: cell-based; details: 1 mM d9-choline in PBS, 75 min, 37°C, anaerobic
Experimental: as §1, §2, §3, §4

[4] = system: Proteus mirabilis ATCC 29906; experiment: as above; type: cell-based; details: 1 mM d9-choline in PBS, 90 min, 37°C, anaerobic; for EC50: read-out: EC50 in whole cells, P. mirabilis (TMA inhibition)
Experimental: as §1, §2, §3, §4

[5] = biological target: T1, purified CutC (choline trimethylamine-lyase) (Oleidesulfovibrio alaskensis, UniProt Q30W70); experiment: In vitro CutC activity assay coupled to YADH/NADH (absorbance 340 nm); type: biochemical, Desulfovibrio desulfuricans G20; details: 5 nM CutC, 200 µM choline, 20°C, anaerobic
T1 construct: made in house
Experimental: To investigate if our compounds were inhibiting CutC directly, we tested their activity toward the purified enzyme. The activity of CutC was determined using a coupled enzyme assay, where the acetaldehyde product from the cleavage of choline to TMA is reduced to ethanol by yeast alcohol dehydrogenase (YADH) using nicotinamide adenine dinucleotide (NADH) as a cofactor. The consumption of NADH results in a change in absorption at 340 nm, and this rate of change of absorption was used to calculate the initial rates of reaction of CutC in the presence of varying concentrations of inhibitors ([14], [65]).
CutC and CutD enzymes from Desulfovibrio desulfuricans G20 were purified, CutC was activated by incubation with CutD, and the amount of glycyl radical installation was quantified as previously described ([15]). The IC50 of compounds was determined in an in vitro CutC activity assay, where CutC activity is coupled to the NADH-dependent enzymatic reduction of acetaldehyde by YADH ([15]). Briefly, assays were conducted in an anaerobic chamber (MBraun) under N2 atmosphere at 20°C. In 50 mM potassium phosphate buffer (pH 8.0, 50 mM KCl), 40 µM of CutD and 150 µM of sodium dithionite were incubated for 20 min before the addition of 200 µM of SAM and 20 µM of CutC monomer. The mixture was incubated for 1 h to activate the glycyl radical enzyme, after which the activated CutC mixture was diluted […] in 50 mM potassium phosphate buffer (pH 8.0, 50 mM KCl). A master mix containing 200 µM NADH, 0.4 µM YADH (Sigma), and the diluted CutC mixture (5 nM final concentration in assay) was prepared and aliquoted into 96-well plates (180 µL per well). Ten microliters of inhibitor or DMSO vehicle was added, followed by 10 µL of aqueous choline chloride solution (final concentration 200 µM). Absorbance was measured at 340 nm immediately after addition of all assay components, with measurements taken every 20 s for 10 min. Initial rates were calculated from absorbance measurements and fitted to Michaelis–Menten equation using nonlinear regression in GraphPad Prism 10 (v. 10.4.0). Background activity was subtracted using no substrate controls, and initial rates for each inhibitor concentration were normalized to no inhibitor controls. IC50 values were obtained by plotting normalized activity values against the logarithm of inhibitor concentration and fitting to a nonlinear regression model in GraphPad Prism 10 (v. 10.4.0).

E. coli MS 200-1 [6] = experiment: MIC in MEGA medium; type: cell-based, Escherichia coli MS 200-1; details: Escherichia coli, MS2001; anaerobic, 37°C, 24 h, up to 200 µM
Experimental: as §1

[7] = system: Bacteroides thetaiotaomicron VPI-5482; experiment: MIC in MEGA medium; type: cell-based; details: Bacteroides thetaiotaomicron, VPI5482; anaerobic, 37°C, 24 h, up to 200 µM; read-out: MIC in MEGA medium, B. thetaiotaomicron
Experimental: as §1

[8] = system: Bacteroides ovatus ATCC 8483; experiment: MIC in MEGA medium; type: cell-based; details: Bacteroides ovatus, ATCC8483; anaerobic, 37°C, 24 h, up to 200 µM; read-out: MIC in MEGA medium, B. ovatus
Experimental: as §1

[9] = system: Anaerococcus hydrogenalis DSM 7454; experiment: MIC in MEGA medium; type: cell-based; details: Anaerococcus hydrogenalis, DSM7454; anaerobic, 37°C, 24 h, up to 200 µM
Experimental: as §1

[10] = system: Collinsella aerofaciens ATCC 25986; experiment: MIC in MEGA medium; type: cell-based; details: Collinsella aerofaciens, ATCC25986; anaerobic, 37°C, 24 h, up to 200 µM
Experimental: as §1

[11] = system: Clostridium sporogenes ATCC 15579; experiment: MIC in MEGA medium; type: cell-based; details: Clostridium sporogenes, ATCC15579; anaerobic, 37°C, 24 h, up to 200 µM
Experimental: as §1

[12] = system: Proteus mirabilis ATCC 29906; experiment: MIC in MEGA medium; type: cell-based; details: Proteus mirabilis, ATCC29906; anaerobic, 37°C, 24 h, up to 200 µM; read-out: MIC in MEGA medium, P. mirabilis
Experimental: as §1

[13] = system: Bacteroides caccae ATCC 43185; experiment: MIC in MEGA medium; type: cell-based; details: Bacteroides caccae, ATCC43185; anaerobic, 37°C, 24 h, up to 200 µM; read-out: MIC in MEGA medium, B. caccae
Experimental: as §1

[14] = Escherichia coli, MS2001, 1.25 h
[15] = Clostridium sporogenes, ATCC15579, 1.25 h
[16] = Proteus mirabilis, ATCC29906, 1.5 h
[17] = Anaerococcus hydrogenalis, DSM7454, 1.25 h

T1 sequence (Q30W70 53-846): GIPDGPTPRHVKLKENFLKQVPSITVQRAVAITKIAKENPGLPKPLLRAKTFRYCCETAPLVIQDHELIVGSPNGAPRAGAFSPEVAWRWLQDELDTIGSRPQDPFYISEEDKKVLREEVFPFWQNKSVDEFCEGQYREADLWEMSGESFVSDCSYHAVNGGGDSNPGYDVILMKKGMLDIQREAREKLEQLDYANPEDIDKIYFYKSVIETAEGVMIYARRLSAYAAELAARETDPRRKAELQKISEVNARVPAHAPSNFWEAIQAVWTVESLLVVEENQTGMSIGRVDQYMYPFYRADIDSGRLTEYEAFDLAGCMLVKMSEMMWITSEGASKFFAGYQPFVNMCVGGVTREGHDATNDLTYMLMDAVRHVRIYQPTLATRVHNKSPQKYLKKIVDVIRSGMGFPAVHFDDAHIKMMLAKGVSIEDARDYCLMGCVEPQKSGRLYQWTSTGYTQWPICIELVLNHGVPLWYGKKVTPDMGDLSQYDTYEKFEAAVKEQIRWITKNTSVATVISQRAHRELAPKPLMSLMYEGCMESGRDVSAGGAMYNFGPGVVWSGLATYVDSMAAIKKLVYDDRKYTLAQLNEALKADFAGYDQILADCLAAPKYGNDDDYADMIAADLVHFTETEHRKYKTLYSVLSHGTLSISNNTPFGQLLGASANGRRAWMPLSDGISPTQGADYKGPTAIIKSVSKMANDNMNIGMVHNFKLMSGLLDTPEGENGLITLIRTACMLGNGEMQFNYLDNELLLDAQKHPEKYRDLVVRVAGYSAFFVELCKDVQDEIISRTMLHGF

Structure (SMILES) | EC50 (E. coli MS 200-1 [1]) [µM] | EC50 [4] [µM] | EC50 (E. coli MS 200-1 [1]; [14]) [µM] | EC50 [3, 15] [µM] | EC50 [4, 16] [µM] | EC50 [2, 17] [µM] | further results
Cc1ccc(-c2cc(C(=O)OCCCN3CCC(C)CC3)c(C)[nH]2)cc1C [Compound 28] | 15 | > 312 |  |  |  |  | EC50 [2]: 11 µM; EC50 [3]: 18 µM; Purified CutC IC50 [5]: No inhibition
Cc1[nH]c(-c2ccccc2)cc1C(=O)NCCCN1CCC(C)CC1 [Compound 22] | 7 | 157 |  |  |  |  | EC50 [2]: 24 µM; EC50 [3]: 147 µM
Cc1cc(-c2cc(C(=O)NCCCN3CCC(C)CC3)c(C)[nH]2)ccn1 [Compound 26] | > 125 | > 312 |  |  |  |  | EC50 in whole cells, A. hydrogenalis (TMA inhibition) [2]: No inhibition at 312; EC50 in whole cells, C. sporogenes (TMA inhibition) [3]: No inhibition at 312; IC50 [5]: 45 µM
Cc1ccc(-c2cc(C(=O)NCCCN3CCN(C)CC3)c(C)[nH]2)cc1C [C00012] |  |  | 14 | 92 | 58 |  | EC50 in whole cells, A. hydrogenalis (TMA inhibition) [2]: No inhibition at 312
Cc1ccc(-c2cc(C(=O)N(C)CCCN3CCC(C)CC3)c(C)[nH]2)cc1C [Compound 27] | > 125 | > 312 |  |  |  |  | EC50 [2]: 44 µM; EC50 [3]: 12 µM; IC50 [5]: 18 µM
Cc1ccc(-c2cc(C(=O)NCCCCN3CCC(C)CC3)c(C)[nH]2)cc1C [C00004] |  |  | 5 | 138 | 35 | 27 | 
Cc1cc(C)cc(-c2cc(C(=O)NCCCN3CCC(C)CC3)c(C)[nH]2)c1 [Compound 25] | 6 | 28 |  |  |  |  | EC50 [2]: 19 µM; EC50 [3]: 133 µM
Cc1ccc(-c2cc(C(=O)NCCCN3CCCCCCC3)c(C)[nH]2)cc1C [C00017] |  |  | 3 | 40 | 28 | 28 | 
Cc1ccc(-c2cc(C(=O)NCCCN3CCOCC3)c(C)[nH]2)cc1C [Compound 37] |  |  |  |  |  |  | Purified CutC IC50 [5]: No inhibition
Cc1ccc(-c2cc(C(=O)NCCCN3CCCCCC3)c(C)[nH]2)cc1C [C00016] |  |  | 2 | 104 | 40 | 43 | 
Cc1ccc(-c2cc(C(=O)NCCCCN3CCCCCC3)c(C)[nH]2)cc1C [Compound 44] |  |  |  |  |  |  | MIC (E. coli MS 200-1 [6]): > 200 µM; MIC [7]: > 200 µM; MIC [8]: > 200 µM; MIC [9]: > 200 µM; MIC [10]: > 200 µM; MIC [11]: > 200 µM; MIC [12]: > 200 µM; MIC [13]: > 200 µM
Cc1ccc(-c2cc(C(=O)NCCN3CCC(C)CC3)c(C)[nH]2)cc1C [C00003] |  |  | 7 | 213 | 64 | 176 | 
Cc1ccc(-c2cc(C(=O)NCCCCCN3CCC(C)CC3)c(C)[nH]2)cc1C [C00005] |  |  | 11 | 84 | 66 | 33 | 
Cc1[nH]ccc1C(=O)NCCCN1CCC(C)CC1 [Compound 20] | > 125 |  |  |  |  |  | EC50 in whole cells, A. hydrogenalis (TMA inhibition) [2]: No inhibition at 312; EC50 in whole cells, C. sporogenes (TMA inhibition) [3]: No inhibition at 312; EC50 in whole cells, P. mirabilis (TMA inhibition) [4]: No inhibition at 312; IC50 [5]: > 125 µM
